Assay results taken from patent publication US20140349989A1, “COMPOUNDS AND THERAPEUTIC USES THEREOF” (Alzheimer's Institute of America, priority 2011, published 2014).
Where two headings read alike, the source gives them in different places.

Experiments:
[1] = target: T1, Human NAMPT (Homo sapiens, UniProt P43490); experiment: Nampt Activity Assay (coupled enzyme fluorometric, resazurin/diaphorase); type: biochemical; settings: His-tagged human NAMPT, 3 μM NAM, 8 μM PRPP, room temperature up to 3 hours; read-out: in vitro IC50 (Nampt catalytic activity)
T1 construct: 6xHis (N); made in house; host or cells: E. coli BL21-AI
T1 sequence (P43490 whole entry): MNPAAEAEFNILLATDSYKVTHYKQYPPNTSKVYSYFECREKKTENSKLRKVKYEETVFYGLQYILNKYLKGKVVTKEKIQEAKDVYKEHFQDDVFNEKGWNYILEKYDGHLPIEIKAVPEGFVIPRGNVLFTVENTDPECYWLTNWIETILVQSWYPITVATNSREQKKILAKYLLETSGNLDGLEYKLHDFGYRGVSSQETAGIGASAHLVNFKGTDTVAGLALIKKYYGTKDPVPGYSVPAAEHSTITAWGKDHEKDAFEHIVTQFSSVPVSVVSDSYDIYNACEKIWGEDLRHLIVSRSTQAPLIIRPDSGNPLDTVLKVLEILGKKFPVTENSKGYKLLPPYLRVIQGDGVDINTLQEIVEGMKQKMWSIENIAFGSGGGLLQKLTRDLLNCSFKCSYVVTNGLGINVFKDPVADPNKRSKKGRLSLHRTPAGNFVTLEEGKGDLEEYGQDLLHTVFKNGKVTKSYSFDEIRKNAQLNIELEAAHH
From the text: 5-phosphoribosyl-1-pyrophosphate (PRPP), ATP, NaM, NaMN, Triton X-100, UDP-glucose and diaphorase were purchased from Sigma-Aldrich, St. Louis, Mo. Human NAMPT, NMN adenylyltransferase (NMNAT1) and UDP-glucose dehydrogenase (UGDH) encoding DNAs were each inserted into a house-modified E. Coli expression vector such that the expressed proteins carried an N-terminal 6×His tag. The His-tagged proteins were expressed in the BL21-AI E. Coli expression strain (Invitrogen Corporation, Carlsbad, Calif.) following induction by 0.2% L-arabinose and 0.5 mM IPTG at 30° C. Proteins were purified on Ni-NTA resin (Qiagen, Germantown, Md.).
The assay for Nampt catalytic activity was constructed based on a previously published coupled enzyme fluorometric technique, which employs NADH as ultimate analyte (Revollo, J. R. et al. Biol. Chem. 279, 50754-50763 (2004)). A substantial improvement in assay sensitivity was achieved by switching from direct detection to a resazurin/diaphorase-based fluorometric detection system for NADH (Guilbault, G. G., and Kramer, D. N. Anal. Chem. 37, 1219-1221 (1965)). The standard inhibition analyses were performed in a real-time mode in 96-well microtiter plates using 50 mM Tris-HCl, pH 7.5, 1% DMSO (v/v), 0.01% Triton X-100 (v/v), 10 mM MgCl2, 2 mM ATP, 3 μM NAM, 8 μM PRPP, […], as well as the following detection reagents: 5 nM Nmnat, 200 nM Ugdh, 200 μM UDP-glucose, 0.02 U/mL diaphorase and 0.25 μM resazurin. Incubation of samples at room temperature for up to 3 hours was followed by quantification of fluorescence intensities at excitation and emission wavelengths of 510 nm and 590 nm, respectively, using Gemini XS plate reader (Molecular Devices, Sunnyvale, Calif.). The counter-assay intended to disqualify false positives, such as inhibitors of detection enzymes or fluorescence quenchers, was carried out essentially as described above with an exception that 1 μM NaMN was substituted for Nampt.

[2] = Cytotoxicity Assay (HCT116, CellTiter-Glo); type: cell-based; settings: human
Method in brief: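 Cells settled overnight, then exposed to compound in DMSO for 72 h, optionally with nicotinic acid (10 μM final) added alongside. Viability read as CellTiter-Glo luminescence.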

[3] = HCT116 cells, 72 hours drug incubation, CellTiter-Glo luminescence, read-out: HCT116 cell cytotoxicity IC50

Structure (SMILES) | IC50 [1] | IC50 at 72 h ([2]; HCT116 cell cytotoxicity IC50) | IC50 at 72 h [2, 3]
Cc1c(-c2ccccc2)c(C(=O)O)nn1-c1ccc(NC(=O)NCc2cccnc2)cc1 [Compound 119, 5-Methyl-4-phenyl-1-(4-{[(pyridin-3-ylmethyl)carbamoyl]amino}phenyl)-1H-pyrazole-3-carboxylic acid] | ~2 nM |  | 
CC(C(=O)N(C)C)N1CCC2(CC1)CN(c1ccc(NC(=O)NCc3cccnc3)cc1)c1ccccc12 (centres unmarked) [Compound 47, N,N-Dimethyl-2-[1-(4-{[(pyridin-3-ylmethyl)carbamoyl]ami-no}phenyl)-1,2-dihydro-1′H-spiro[indole-3,4′-piperidin]-1′-yl]propanamide] | < 1 nM | < 1 nM | < 100 nM
O=C(/C=C/c1ccc(-n2cc(CCN3CCOCC3)c3ccccc32)cc1)NCc1cccnc1 [Compound 175, (2E)-3-(4-{3-[2-(Morpholin-4-yl)ethyl]-1H-indol-1-yl}phenyl)-N-(pyridin-3-ylmethyl)prop-2-enamide] | ~1 nM | ~7 nM | < 100 nM
O=C(NCc1cccnc1)Nc1ccc(-n2cc(C(=O)N3CC(N4CCNCC4)C3)c3ccccc32)cc1 [Compound 15, 1-[4-(3-{[3-(Piperazin-1-yl)azetidin-1-yl]carbonyl}-1H-indol-1-yl)phenyl]-3-(pyridin-3-ylmethyl)urea] | ~1 nM | ~60 nM | 
O=C(/C=C/c1ccc(-n2nc(C(=O)N3CC(N4CCOCC4)C3)c3ccccc32)cc1)NCc1cccnc1 [Compound 169, (2E)-3-[4-(3-{[3-(Morpholin-4-yl)azetidin-1-yl]carbonyl}-1H-indazol-1-yl)phenyl]-N-(pyridin-3-ylmethyl)prop-2-enamide] | ~3 nM | ~10 nM | < 100 nM
O=C(NCc1cccnc1)Nc1ccc(-n2cc(C(=O)NCCCN3CCCC3)c3ccccc32)cc1 [Compound 4] | ~1 nM | ~8 nM | 
O=C(NCc1cccnc1)Nc1ccc(-n2nc(C(=O)NCCN3CCCC3)c3ccccc32)cc1 [Compound 6, 1-(4-{[(Pyridin-3-ylmethyl)carbamoyl]amino}phenyl)-N-[2-(pyrrolidin-1-yl)ethyl]-1H-indazole-3-carboxamide] | ~2 nM | ~18 nM | 
O=C(NCc1cccnc1)Nc1ccc(-n2nc(N3CCN(C4CCCC4)CC3)c3ccccc32)cc1 [Compound 109, 1-{4-[3-(4-Cyclopentyl-piperazin-1-yl)-1H-indazol-1-yl]phenyl}-3-(pyridin-3-ylmethyl)urea] | ~1 nM | ~1 nM | < 100 nM
CC(C)N1CCC2(CC1)CN(c1ccc(NC(=O)NCc3cccnc3)cc1)c1ccccc12 [Compound 61, 1-{4-[1′-(Propan-2-yl)spiro[indole-3,4′-piperidin]-1(2H)-yl]phenyl}-3-(pyridin-3-ylmethyl)urea] | < 1 nM |  | 
O=C(NCc1cccnc1)Nc1ccc(-n2cc(CCN3CCCC3)c3ccccc32)cc1 [Compound 78, 1-(Pyridin-3-ylmethyl)-3-(4-{3-[2-(pyrrolidin-1-yl)ethyl]-1H-indol-1-yl}phenyl)urea] | ~1 nM | ~1 nM | < 100 nM
O=C(NCc1cccnc1)Nc1ccc(-n2cc(C(=O)N3CCC(N4CCOCC4)CC3)c3cccnc32)cc1 [Compound 27, 1-[4-[3-(4-morpholinopiperidine-1-carbonyl)pyrrolo[2,3-b]pyridin-1-yl]phenyl]-3-(3-pyridylmethyl)urea] | ~1 nM | ~4 nM | 
O=C(NCc1cccnc1)Nc1ccc(-c2nn(C3CN(C4CCCC4)C3)c3ccccc23)cc1 [Compound 33, 1-{4-[1-(1-Cyclopentyl-azetidin-3-yl)-1H-indazol-3-yl]phenyl}-3-(pyridin-3-ylmethyl)urea] | < 1 nM | ~1 nM | < 100 nM
O=C(NCc1cccnc1)Nc1ccc(-n2ccc(C(=O)NCCN3CCCC3)n2)cc1 [Compound 1, 1-(4-{[(Pyridin-3-ylmethyl)carbamoyl]amino}phenyl)-N-[2-(pyrrolidin-1-yl)ethyl]-1H-pyrazole-3-carboxamide] | ~10 nM |  | 
O=C(NCCCCC(=O)c1cn(C2CCNCC2)c2ccccc12)NCc1cccnc1 [Compound 90, 1-{5-Oxo-5-[1-(piperidin-4-yl)-1H-indol-3-yl]pentyl}-3-(pyridin-3-ylmethyl)urea] |  |  | < 100 nM
O=C(NCc1cccnc1)Nc1ccc(-n2c(Cl)c(C(=O)N3CCN(C4CCCCC4)CC3)c3ccccc32)cc1 [Compound 70, 1-(4-{2-Chloro-3-[(4-cyclohexyl-piperazin-1-yl)carbonyl]-1H-indol-1-yl}phenyl)-3-(pyridin-3-ylmethyl)urea] |  |  | < 100 nM
O=C(/C=C/c1ccc(-n2nc(C(=O)N3CCN(C4CCCCC4)CC3)c3ccccc32)cc1)NCc1cccnc1 [Compound 173, (2E)-3-(4-{3-[(4-Cyclohexylpiperazin-1-yl)carbonyl]-1H-indazol-1-yl}phenyl)-N-(pyridin-3-ylmethyl)prop-2-enamide] |  |  | < 100 nM
O=C(/C=C/c1ccc(-n2cc(CCN3CCCC3)c3ccccc32)cc1)NCc1cccnc1 [Compound 174, (2E)-N-(Pyridin-3-ylmethyl)-3-(4-{3-[2-(pyrrolidin-1-yl)ethyl]-1H-indol-1-yl}phenyl)prop-2-enamide] |  |  | < 100 nM
O=C(NCc1cccnc1)Nc1ccc(-n2cc(C3CCNCC3)c3ccccc32)cc1 [Compound 29, 1-[4-[3-(4-piperidyl)indol-1-yl]phenyl]-3-(3-pyridylmethyl)urea] | ~1 nM |  | 
O=C(NCc1cccnc1)Nc1ccc(-n2nc(C#CCN3CCOCC3)c3ccccc32)cc1 [Compound 42, 1-(4-{3-[3-(Morpholin-4-yl)prop-1-yn-1-yl]-1H-indazol-1-yl}phenyl)-3-(pyridin-3-ylmethyl)urea] |  | < 100 nM | 
O=C(NCc1cccnc1)N[C@H]1CC[C@@H](n2cc(C(=O)N3CCN(C4CCCCC4)CC3)c3ccccc32)CC1 [Compound 34, 1-(cis-4-{3-[(4-Cyclohexyl-piperazin-1-yl)carbonyl]-1H-indol-1-yl}cyclohexyl)-3-(pyridin-3-ylmethyl)urea] |  |  | ≥ 100 nM
COc1cccc(-c2cn(-c3ccc(NC(=O)NCc4cccnc4)cc3)nc2C(=O)NCCCN2CCCCC2)c1 [Compound 54, 4-(3-Methoxyphenyl)-N-[3-(piperidin-1-yl)propyl]-1-(4-{[(pyridin-3-ylmethyl)carbamoyl]ami-no}phenyl)-1H-pyrazole-3-carboxamide] |  |  | < 100 nM
CC1CCCN1CCc1cn(-c2ccc(/C=C/C(=O)NCc3cccnc3)cc2)c2ccccc12 (centres unmarked) [Compound 161, (2E)-3-(4-{3-[2-(2-Methylpyrrolidin-1-yl)ethyl]-1H-indol-1-yl)phenyl)-N-(pyridin-3-ylmethyl)prop-2-enamide] |  |  | < 100 nM
